Measurements reported in ChEMBL document CHEMBL1201862, “PubChem BioAssay data set” (2004).
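Five concentrations, 48 hours, 96-well plates. GI50 = concentration required for 50% inhibition of growth.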 The source made the active and inactive calls. No stated cut-off is given here; in the data, active = GI50 up to about 1.1 µM and inactive = higher.

Experiments:
Assay in all cases: growth of human tumour cells (NCI), 48 h
786-0 = tested on: 786-0
A549 = tested on: A549
ACHN = tested on: ACHN
CCRF-CEM = tested on: CCRF-CEM
COLO 205 = tested on: COLO 205
DMS-114 = tested on: DMS-114
DMS-273 = tested on: DMS-273
EKVX = tested on: EKVX
HCT-116 = tested on: HCT-116
HL-60 = tested on: HL-60
HOP-18 = tested on: HOP-18
HOP-92 = tested on: HOP-92
HT-29 = tested on: HT-29
K562 = tested on: K562
M14 = tested on: M14
MOLT-4 = tested on: MOLT-4
Malme-3M = tested on: Malme-3M
NCI-H23 = tested on: NCI-H23
OVCAR-3 = tested on: OVCAR-3
OVCAR-4 = tested on: OVCAR-4
OVCAR-8 = tested on: OVCAR-8
RPMI-8226 = tested on: RPMI-8226
SF-268 = tested on: SF-268
SF-295 = tested on: SF-295
SF-539 = tested on: SF-539
SK-MEL-28 = tested on: SK-MEL-28
SK-OV-3 = tested on: SK-OV-3
SN12C = tested on: SN12C
SNB-19 = tested on: SNB-19
SNB-75 = tested on: SNB-75
SNB-78 = tested on: SNB-78
U-251 = tested on: U-251
UACC-257 = tested on: UACC-257
UO-31 = tested on: UO-31
XF498 = tested on: XF498
A498 = tested on: A498
CAKI-1 = tested on: CAKI-1
DLD-1 = tested on: DLD-1
HCC 2998 = tested on: HCC 2998
HCT-15 = tested on: HCT-15
HOP-62 = tested on: HOP-62
IGROV-1 = tested on: IGROV-1
KM-20L2 = tested on: KM-20L2
KM12 = tested on: KM12
LXFL 529 = tested on: LXFL 529
M19-MEL = tested on: M19-MEL
NCI-H226 = tested on: NCI-H226
NCI-H460 = tested on: NCI-H460
NCI-H522 = tested on: NCI-H522
OVCAR-5 = tested on: OVCAR-5
RXF 393 = tested on: RXF 393
SK-MEL-2 = tested on: SK-MEL-2
SK-MEL-5 = tested on: SK-MEL-5
SW-620 = tested on: SW-620
TK-10 = tested on: TK-10
UACC-62 = tested on: UACC-62

Measured: GI50

COc1ccc(CSc2nc3ccccc3nc2-c2cccs2)cc1
inactive: 786-0 > 100 µM | A549 > 100 µM | ACHN > 100 µM | CCRF-CEM 15.2 µM | COLO 205 > 100 µM | DMS-114 76 µM | DMS-273 > 100 µM | EKVX > 100 µM | HCT-116 > 100 µM | HL-60 26.4 µM | HOP-18 > 100 µM | HOP-92 > 100 µM | HT-29 > 100 µM | K562 30.7 µM | M14 > 100 µM | MOLT-4 56.2 µM | Malme-3M > 100 µM | NCI-H23 > 100 µM | OVCAR-3 > 100 µM | OVCAR-4 > 100 µM | OVCAR-8 > 100 µM | RPMI-8226 > 100 µM | SF-268 > 100 µM | SF-295 > 100 µM | SF-539 > 100 µM | SK-MEL-28 > 100 µM | SK-OV-3 > 100 µM | SN12C > 100 µM | SNB-19 > 100 µM | SNB-75 > 100 µM | SNB-78 > 100 µM | U-251 > 100 µM | UACC-257 98.4 µM | UO-31 > 100 µM | XF498 > 100 µM

CCC1=C(C(C)=O)[C@@H]2CCCCC(C(=O)OC)[C@@H]2C1=O (some centres undefined)
inactive: 786-0 > 100 µM | A498 > 100 µM | A549 > 100 µM | ACHN > 100 µM | CAKI-1 > 100 µM | CCRF-CEM > 100 µM | COLO 205 > 100 µM | DLD-1 > 100 µM | DMS-114 > 100 µM | DMS-273 > 100 µM | EKVX > 100 µM | HCC 2998 > 100 µM | HCT-116 > 100 µM | HL-60 > 100 µM | HOP-18 47 µM | HOP-62 > 100 µM | HOP-92 > 100 µM | HT-29 > 100 µM | IGROV-1 > 100 µM | K562 > 100 µM | KM-20L2 > 100 µM | KM12 > 100 µM | LXFL 529 > 100 µM | M14 > 100 µM | M19-MEL 79.4 µM | MOLT-4 > 100 µM | Malme-3M > 100 µM | NCI-H226 > 100 µM | NCI-H23 > 100 µM | NCI-H460 > 100 µM | NCI-H522 88.1 µM | OVCAR-4 > 100 µM | OVCAR-5 > 100 µM | OVCAR-8 > 100 µM | RPMI-8226 > 100 µM | RXF 393 > 100 µM | SF-268 > 100 µM | SF-295 > 100 µM | SF-539 > 100 µM | SK-MEL-28 > 100 µM | SK-MEL-2 > 100 µM | SK-MEL-5 > 100 µM | SK-OV-3 > 100 µM | SN12C > 100 µM | SNB-19 > 100 µM | SNB-75 > 100 µM | SNB-78 > 100 µM | SW-620 > 100 µM | TK-10 > 100 µM | U-251 > 100 µM | UACC-257 > 100 µM | UACC-62 > 100 µM | UO-31 > 100 µM
> 100 µM: HCT-15
